Columns and labels:
wild-type HBV = assay: intracellular HBV DNA replication assay, wild-type HBV; format: cell-based, Hepatitis B virus
Experimental: (§1) Drug susceptibility assays were performed as previously described. Cytotoxicity assays in PBM, CEM and Vero cells were conducted as previously described. Two compounds were used for testing, the first, an adenine nucleoside analog which contained hydroxyl groups at R^1 and R^1a on the sugar portion of the molecule (compound 15/18) and the second, a prodrug nucleoside based upon compound 15/18 which contained a phosphoamidate group on R^1 (R^1a was H) containing a phenyl group as R^6 and B′ was an amino acid group derived from alanine, where R^8 was methyl and R″ was a methyl group, forming a methyl ester. These compounds were tested in a standard HBV assay in the laboratory of Dr. Brent Korba.

HBV rtL180M = assay: intracellular HBV DNA replication assay, rtL180M mutant; format: cell-based, Hepatitis B virus
Experimental: as §1

[1] = test system: HBV double mutant rtL180M/rtM204V; assay: intracellular HBV DNA replication assay, double mutant; format: cell-based; details: Hepatitis B virus
Experimental: as §1

HBV rtA181T and rtN236T = details: cited from earlier work
HBV = assay: standard HBV assay (laboratory of Dr. Brent Korba); format: cell-based, Hepatitis B virus
Experimental: as §1

[2] = test system: lamivudine-resistant mutants including rtM204V/I±rtL180M; details: literature ref. 50; cited from earlier work

C=C1[C@@H](n2cnc3c(N)ncnc32)[C@@H](F)[C@H](O)[C@H]1CO [Compound 15, (+)-(1R,2R,3R,5R)-3-(6-amino-9H-9-purinyl)-2-fluoro-5-(hydroxymethyl)-4-methylenecyclopentan-1-ol]
fold more potent than adefovir (EC90) (wild-type HBV; wild-type HBV, EC90): 1.5 fold | fold increased antiviral activity in the EC90 value versus lamivudine (HBV rtL180M): 4.3 fold

Nc1ncnc2c1ncn2CCOCP(=O)(O)O [adefovir]
EC90 (wild-type HBV; Hepatitis B virus, HBV-WT, concentration required to inhibit 90% of HBV DNA, read-out: EC90 against wild-type HBV): 7.1 µM | EC50 ([1]; read-out: EC50 against double mutant rtL180M/rtM204V): 2.2 µM | EC90 ([1]; read-out: EC90 against double mutant rtL180M/rtM204V): 8.5 µM | increase in median effective concentration (HBV rtA181T and rtN236T): two-fold to nine-fold

C=C1C(COP(=O)(N[C@@H](C)C(=O)OC)Oc2ccccc2)C(O)C(F)C1n1cnc2c(N)ncnc21 (stereo partly drawn) [Test Number 2, 2′-Deoxy-2′-fluoro-3′-hydroxy-4′-(hydroxymethyl)-5′-methylene-carbocyclic Adenosine (2′-FMCA) Monophosphate prodrug]
times more active than the compound where both R1 and R1a are H (HBV): more than 10 times

C=C1[C@@H](n2cnc3c(N)ncnc32)[C@@H](F)[C@H](O)[C@H]1CO (hydrate or solvate) [Compound 15, (+)-(1R,2R,3R,5R)-3-(6-amino-9H-9-purinyl)-2-fluoro-5-(hydroxymethyl)-4-methylenecyclopentan-1-ol]
melting point: 215 to 218 °C (dec.)

C=C1[C@H](CO)[C@@H](O)C[C@@H]1n1cnc2c(=O)[nH]c(N)nc21 [entecavir]
fold loss of activity against lamivudine-resistant mutants [2]: 8 fold

— patent US8946244B2, “2′-fluoro-6′methylene carbocyclic nucleosides and methods of treating viral infections” (University of Georgia Research Foundation, Inc., priority 2009, dated 2015)
